Reference: patent US12290521B2, “Methods and materials for identifying and treating BET inhibitor-resistant cancers” (Mayo Foundation for Medical Education and Research, priority 2018, dated 2025)
Entries after “also recorded” stand apart in the source; their conditions may differ.

Tested on: C4-2 cells
Test: Western blot and RT-qPCR of protein and mRNA expression in C4-2 cells
Assay type: cell-based, human
Experimental: Cell lysates or immunoprecipitates were subjected to SDS-PAGE, and proteins were transferred to nitrocellulose membranes (GE Healthcare Sciences). The membranes were blocked in Tris-buffered saline (TBS, pH 7.4) containing 5% non-fat milk and 0.1% Tween-20, washed twice in TBS containing 0.1% Tween-20, and incubated with primary antibody overnight at 4° C., followed by secondary antibody for 1 hour at room temperature. The proteins of interest were visualized using ECL chemiluminescence system (Santa Cruz Biotechnology). Densitometry analysis of protein bands was analyzed on the Gel-Pro Analyzer software.
Total RNA was isolated from transiently transfected cells using the Trizol reagent (Thermo Fisher Scientific), and cDNA was reverse-transcribed using the Superscript RT kit (TOYOBO, Japan) according to the manufacturer's instructions. PCR amplification was performed using the SYBR Green PCR master mix Kit (TOYOBO, Japan). All quantization was normalized to the level of endogenous control GAPDH. The primer sequences for the SYBR green qPCR used were as follows: BRD2-F: 5′-[…]-3′ (SEQ ID NO:10); BRD2-R: 5′-[…]-3′ (SEQ ID NO:11); BRD3-F: 5′-[…]-3′ (SEQ ID NO:12); BRD3-R: 5′-[…]-[…]-3′ (SEQ ID NO:13); BRD4-F: 5′-[…]-GAG-3′ (SEQ ID NO:14); BRD4-F: 5′-[…]-3′ (SEQ ID NO: 15); RAC1-F: 5′-[…]-3′ (SEQ ID NO:16); RAC1-R: 5′-[…]-3′ (SEQ ID NO:17); FDFT1-F: 5′-ACTAT-[…]-3′ (SEQ ID NO:18); FDFT1-R: 5′-[…]-[…]-3′ (SEQ ID NO:19); DHCR24-F: 5′-[…]-GAGC-3′ (SEQ ID NO:20); DHCR24-R: 5′-[…]-3′(SEQ ID NO:21); DHCR7-F: 5′-[…]-3′ (SEQ ID NO: 22); DHCR7-R: 5′-[…]-3′ (SEQ ID NO:23); MVD-F: 5′-[…]-3′ (SEQ ID NO:24); MVD-R: 5′-CACAC-[…]-3′ (SEQ ID NO:25); PSA-F: 5′-[…]-[…]-3′ (SEQ ID NO:26); PSA-R: 5′-[…]-3′ (SEQ ID NO:27); TMPRSS2-F: 5′-[…]-3′ (SEQ ID NO: 28); TMPRSS2-R: 5′-[…]-3′ (SEQ ID NO:29); MYC-F: 5′-[…]-3′ (SEQ ID NO:30); MYC-R: 5′-CTTGT-[…]-3′ (SEQ ID NO:31); AR-F: 5′-[…]-TCACC-3′ (SEQ ID NO:32); AR-R: 5′-[…]-3′ (SEQ ID NO: 33); GAPDH-F: 5′-[…]-3′ (SEQ ID NO:34); and GAPDH-R: 5′-[…]-3′ (SEQ ID NO:35).
Cells were harvested and lysed by IP buffer (50 mM Tris-HCl, pH 7.4, 150 mM NaCl, 1% Triton X-100, 1% sodium deoxycholate and 1% protease inhibitor cocktails) on ice for more than 15 minutes. Cell lysate was centrifuged for 15 minutes at 13,000 rpm at 4° C., and the supernatant was quantified by BCA protein quantification assay. Equal amounts of protein sample were added into 4× sample buffer and boiled for 5 minutes. The sample was subjected to SDS-PAGE analysis and transferred to nitrocellulose membrane. The membrane was blocked by 5% milk for 1 hour at room temperature and incubated with primary antibody at 4° C. overnight. The next day, the membrane was washed three times with 1×TBST and incubated with horseradish peroxidase-conjugated secondary antibodies for 1 hour at room temperature. The protein bands were visualized by SuperSignal West Pico Stable Peroxide Solution (Thermo Fisher Scientific).
Total RNA was isolated using TRIzol reagent (Thermo Fisher Scientific). The NanoDrop 2000 spectrophotometer (Thermo Fisher Scientific) was used to assess RNA yield and quality. RNA was reversely transcribed using Superscript II reverse transcriptase (Thermo Fisher Scientific) following manufacturer's instructions. Quantitative real-time PCR was performed by mixing cDNA, gene-specific primers and IQ SYRB Green Supermix and detected by iCycler QTX detection system (Bio-Rad). The 2-ΔCt method was used to quantitate fold changes by normalizing to GAPDH.

[1] = control and SPOP-F133V C4-2 cells, JQ1 1 μM, 24 hours

Compound: Cc1sc2c(c1C)C(c1ccc(Cl)cc1)=N[C@@H](CC(=O)OC(C)(C)C)c1nnc(C)n1-2 [JQ1]
- ERG expression (C4-2 and 22Rv1 cells (JQ1 1 μM, 24 hours) and C4-2 tumors): largely decreased
- BRD4 protein level (C4-2 cells, JQ1): increased
- DUB3 mRNA and protein levels (C4-2 cells, JQ1): opposite; also recorded: upregulation
- NCOR2 protein and mRNA expression (C4-2 cells, dose- and time-dependent): decreased
- expression of cholesterol synthesis genes (FDFT1, DHCR24, DHCR7, MVD) and BRD4 binding at their promoters (SPOP-F133V C4-2 cells, JQ1 1 μM, 24 hours): not pronounced
- expression of cholesterol synthesis genes (FDFT1, DHCR24, DHCR7, MVD) and BRD4 binding at their promoters (control C4-2 cells, JQ1 1 μM, 24 hours): largely inhibited
- AR protein level [1]: largely decreased
- AR transcriptional activity [1]: largely decreased
- MYC protein expression [1]: markedly decreased
- expression of receptor tyrosine kinases HER3, IGF1R and INSR [1]: no effect
